Counter-ions that a name gives are not always drawn. Like-named read-outs stand apart in the source and are kept apart here.
Biological target: T1, horseradish peroxidase (HRP) tagged delF508-CFTR (Homo sapiens, UniProt P13569, DEL508-508)
T1 construct: expressed in transfected cells
Experiment: Measurement of delF508-CFTR-HRP surface expression in CFBE41o- cells;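 as to DelF508-CFTR-HRP Amax %: percent efficacy relative to reference corrector lumacaftor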
Assay type: cell-based
Details: CFBE41o- cells; for EC50: read-out: DelF508-CFTR-HRP EC50; for Emax: read-out: DelF508-CFTR-HRP Amax %
Description: Measurement of delF508-CFTR-HRP Surface Expression in CFBE41o-Cells
This assay quantifies the cell surface expressions of the mutant CFTR channel using an extracellular HRP tag.
A cellular assay was developed to measure surface expression of horseradish peroxidase (HRP) tagged delF508-CFTR in the human bronchial epithelial immortalized CFBE41o-cell line (Phuan, P. W., et al, (2014) Molecular Pharmacology 86:42-51). Specifically, the HRP sequence was inserted into the fourth extracellular loop of delF508-CFTR and stably expressed in CFBE41o-cells. Cells were seeded in 384 well plate at a density of 5000 cells/well and incubated at 37° C. for 12 to 24 hours in medium (Gibco MEM #11095, 10% FBS, 10 mM HEPES, […], 200 μg/mL G418, 3 μg/mL Puromycin). The delF508-CFTR-HRP expression was induced with 500 ng/mL doxycycline (Sigma D-9891, dissolved in H2O and sterile filtered) in medium and the cells were incubated at 37° C. for 48h. Old medium was removed and fresh medium was added containing 500 ng/mL doxycycline and unknown test compound at required test concentration in DMSO, not exceeding 0.5% final DMSO concentration. The highest concentration tested was 10 μM with a 10-point concentration response curve using a 3-fold dilution. After addition of compounds, the cells were incubated for 24h at 37° C. On the final day, cells were washed four times in PBS containing 1 mM MgCl2 and 0.1 mM CaCl2. HRP-Substrate (SuperSignal ELISA Pico, Fisher #37069) 20 μl/well was added and the luminescence signal was determined (Viewlux, Perkin Elmer). Light was emitted upon addition of exogenous HRP-Substrate only when delF508-CFTR-HRP reached the cell surface and the HRP tag was accessible to the HRP-Substrate (note: HRP-Substrate cannot cross the lipid bilayer to reach delF508-CFTR-HRP misfolded within the cell).
The median activity for the lowest concentration of the compounds on each assay plate was calculated and this value was used to normalize the signal for each well on the respective plate. Three replicates at each concentrations for every compound were run to determine one EC50. The median value was determined and used to calculate compound activities as described below. Effective half maximal values (EC50) were calculated for each compound by performing logistic regression on measured dose-response data points using the equation:
[formula] where “Y” is the observed activity, “Bottom” is the lowest observed value, “Top” is the highest observed value, and the “Hill coefficient” gives the largest absolute value of the slope. The curve fitting is carried out by a curve fitting program implemented at GNF using Matlab (Mathworks).
The dose response curves also were used to calculate Fold Change (FC) using the equation: […]
Compound efficacy relative to the reference compound 3-(6-(1-(2,2-difluorobenzo[d][1,3]dioxol-5-yl)cyclopropane-1-carboxamido)-3-methylpyridin-2-yl)benzoic acid was determined using the following formula: […]

[1] = mean of at least two replicates
[2] = delF508-CFTR-HRP surface expression

T1 sequence (P13569 with tags, fused parts or gaps DEL508-508): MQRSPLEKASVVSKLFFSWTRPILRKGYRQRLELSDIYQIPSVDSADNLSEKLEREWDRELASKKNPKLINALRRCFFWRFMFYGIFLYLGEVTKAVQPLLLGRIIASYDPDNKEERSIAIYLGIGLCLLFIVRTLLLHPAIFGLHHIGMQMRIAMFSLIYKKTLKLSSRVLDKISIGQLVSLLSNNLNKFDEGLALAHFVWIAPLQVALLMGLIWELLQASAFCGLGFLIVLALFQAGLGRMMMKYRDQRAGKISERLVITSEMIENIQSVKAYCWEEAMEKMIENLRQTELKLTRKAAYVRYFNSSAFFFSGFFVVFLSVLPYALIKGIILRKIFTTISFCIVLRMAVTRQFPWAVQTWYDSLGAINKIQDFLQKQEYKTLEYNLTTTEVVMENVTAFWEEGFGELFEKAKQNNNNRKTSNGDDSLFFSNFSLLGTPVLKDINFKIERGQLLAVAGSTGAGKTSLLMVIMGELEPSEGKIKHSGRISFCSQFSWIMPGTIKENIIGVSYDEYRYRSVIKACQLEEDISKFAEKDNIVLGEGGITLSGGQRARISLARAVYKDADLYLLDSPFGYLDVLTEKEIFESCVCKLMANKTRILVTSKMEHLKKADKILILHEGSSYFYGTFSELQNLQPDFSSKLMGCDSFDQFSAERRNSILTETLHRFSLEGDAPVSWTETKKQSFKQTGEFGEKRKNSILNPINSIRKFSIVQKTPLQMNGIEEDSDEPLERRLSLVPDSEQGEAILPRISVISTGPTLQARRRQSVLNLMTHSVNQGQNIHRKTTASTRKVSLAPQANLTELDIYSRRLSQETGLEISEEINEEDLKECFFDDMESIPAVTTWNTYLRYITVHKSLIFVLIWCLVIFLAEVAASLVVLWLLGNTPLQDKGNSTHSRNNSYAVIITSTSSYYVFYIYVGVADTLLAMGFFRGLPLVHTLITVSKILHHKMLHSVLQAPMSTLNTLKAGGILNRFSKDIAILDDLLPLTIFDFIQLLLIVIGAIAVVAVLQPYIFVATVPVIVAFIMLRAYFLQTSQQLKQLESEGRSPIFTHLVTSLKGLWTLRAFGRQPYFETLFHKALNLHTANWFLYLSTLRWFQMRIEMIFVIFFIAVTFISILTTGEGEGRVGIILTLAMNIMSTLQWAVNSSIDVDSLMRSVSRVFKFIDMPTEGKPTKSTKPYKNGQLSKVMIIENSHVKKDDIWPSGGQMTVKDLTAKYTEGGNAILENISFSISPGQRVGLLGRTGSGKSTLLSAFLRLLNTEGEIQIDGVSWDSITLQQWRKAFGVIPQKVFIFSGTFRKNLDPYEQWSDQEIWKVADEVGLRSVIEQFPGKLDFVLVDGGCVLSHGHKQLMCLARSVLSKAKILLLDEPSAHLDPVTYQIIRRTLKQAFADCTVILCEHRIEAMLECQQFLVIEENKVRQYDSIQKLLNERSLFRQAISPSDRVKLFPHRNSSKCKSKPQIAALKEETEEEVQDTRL

EC50 [1]	Emax (surface expression Amax)	Emax [2]	EC50 [2]	Structure (SMILES)
1100 nM	–	–	–	Cc1ccc(Cl)cc1-c1nc(NS(=O)(=O)c2cccc(N3CCC[C@@](C)(C(=O)O)C3)n2)ccc1C(F)(F)F [Example 450, (R)-1-(6-(N-(6-(5-chloro-2-methylphenyl)-5-(trifluoromethyl)pyridin-2-yl)sulfamoyl)pyridin-2-yl)-3-methylpiperidine-3-carboxylic Acid]
4060 nM	47.5%	–	–	CC1(C(=O)O)CCCN(c2cccc(S(=O)(=O)Nc3ccc(C(F)(F)F)c(-c4ccccc4CO)n3)n2)C1 (stereo not shown) [Example 444, 1-(6-(N-(6-(2-(hydroxymethyl)phenyl)-5-(trifluoromethyl)pyridin-2-yl)sulfamoyl)pyridin-2-yl)-3-methylpiperidine-3-carboxylic Acid]
1560 nM	869%	–	–	C[C@@]1(C(=O)O)CCCN(c2cccc(S(=O)(=O)Nc3ccc(Cl)c(-c4ccccc4C4CC4)n3)n2)C1 [Example 437, (R)-1-(6-(N-(5-chloro-6-(2-cyclopropylphenyl)pyridin-2-yl)sulfamoyl)pyridin-2-yl)-3-methylpiperidine-3-carboxylic Acid]
–	–	110%	3680 nM	Cc1ccc(C#N)cc1-c1nc(NS(=O)(=O)c2ccnc(N)c2)ccc1Cl [Example 85, 2-amino-N-(5-chloro-6-(5-cyano-2-methylphenyl)pyridin-2-yl)pyridine-4-sulfonamide]
–	–	658%	971 nM	Cc1cccc(C)c1-c1nc(NS(=O)(=O)c2cccc(N3CCN(C(=O)OC(C)(C)C)CC3=O)n2)ccc1Cl [Example 188, tert-butyl 4-(6-(N-(5-chloro-6-(2,6-dimethylphenyl)pyridin-2-yl)sulfamoyl)pyridin-2-yl)-3-oxopiperazine-1-carboxylate]
1490 nM	–	–	–	Cc1cccc(C)c1-c1nc(NS(=O)(=O)c2cccc(N3CCC[C@@](C)(C(=O)O)C3)n2)ccc1Cl [Example 448, (R)-1-(6-(N-(5-chloro-6-(2,6-dimethylphenyl)pyridin-2-yl)sulfamoyl)pyridin-2-yl)-3-methylpiperidine-3-carboxylic Acid]
–	–	253%	2980 nM	Cc1cccc(F)c1-c1nc(NS(=O)(=O)c2ccc(N)nc2)ccc1Cl [Example 60, 6-amino-N-(5-chloro-6-(2-fluoro-6-methylphenyl)pyridin-2-yl)pyridine-3-sulfonamide]
–	–	376%	2000 nM	Cc1ccc(Cl)c(-c2nc(NS(=O)(=O)c3cccc(N)n3)ccc2Cl)c1F [Example 38, 6-amino-N-(5-chloro-6-(6-chloro-2-fluoro-3-methylphenyl)pyridin-2-yl)pyridine-2-sulfonamide]
1920 nM	596%	–	–	COc1ccc(Cl)cc1-c1nc(NS(=O)(=O)c2cccc(N3CCCC(C)(C(=O)O)C3)n2)ccc1C(F)(F)F (stereo not shown) [Example 432, 1-(6-(N-(6-(5-chloro-2-methoxyphenyl)-5-(trifluoromethyl)pyridin-2-yl)sulfamoyl)pyridin-2-yl)-3-methylpiperidine-3-carboxylic Acid]
–	–	72%	4220 nM	Cc1ccccc1-c1nc(NS(=O)(=O)c2cccc(N[C@@H]3CCNC[C@@H]3O)n2)ccc1C(F)(F)F (relative stereo) [Example 113, 6-(((3S,4R)-3-hydroxypiperidin-4-yl)amino)-N-(6-(o-tolyl)-5-(trifluoromethyl)pyridin-2-yl)pyridine-2-sulfonamide Hydrochloride]
–	–	130%	4420 nM	O=S(=O)(Nc1ccc(Cl)c(-c2cccc(F)c2Cl)n1)c1cccc(N2CCNCC2)n1 [Example 159, N-(5-chloro-6-(2-chloro-3-fluorophenyl)pyridin-2-yl)-6-(piperazin-1-yl)pyridine-2-sulfonamide hydrochloride]
–	–	92.9%	3780 nM	Cc1ccccc1-c1nc(NS(=O)(=O)c2cccnc2N)ccc1Cl [Example 88, 2-amino-N-(5-chloro-6-(o-tolyl)pyridin-2-yl)pyridine-3-sulfonamide]
–	–	220%	1540 nM	Nc1cccc(S(=O)(=O)Nc2ccc(Cl)c(-c3ccccc3C(F)F)n2)n1 [Example 65, 6-amino-N-(5-chloro-6-(2-(difluoromethyl)phenyl)pyridin-2-yl)pyridine-2-sulfonamide]
2360 nM	990%	–	–	CCC1(C(=O)O)CCCN(c2cccc(S(=O)(=O)Nc3ccc(Cl)c(-c4ccccc4C)n3)n2)C1 (stereo not shown) [Example 452, 1-(6-(N-(5-chloro-6-(o-tolyl)pyridin-2-yl)sulfamoyl)pyridin-2-yl)-3-ethylpiperidine-3-carboxylic Acid]
810 nM	668%	–	–	CC(C)c1ccccc1-c1nc(NS(=O)(=O)c2cccc(N3CCC[C@](C)(C(=O)O)C3)n2)ccc1C(F)(F)F [Example 385, (S)-1-(6-(N-(6-(2-isopropylphenyl)-5-(trifluoromethyl)pyridin-2-yl)sulfamoyl)pyridin-2-yl)-3-methylpiperidine-3-carboxylic Acid]
1670 nM	330%	–	–	Cc1ccccc1-c1nc(NS(=O)(=O)c2cccc(N3CCC[C@@](C)(C(=O)O)C3)n2)ccc1C [Example 409, (R)-3-methyl-1-(6-(N-(5-methyl-6-(o-tolyl)pyridin-2-yl)sulfamoyl)pyridin-2-yl)piperidine-3-carboxylic Acid]
1770 nM	438%	–	–	Cc1c(F)cccc1-c1nc(NS(=O)(=O)c2cccc(N3CCC[C@](C)(C(=O)O)C3)n2)ccc1C(F)(F)F [Example 436, (3S)-1-(6-{[6-(3-fluoro-2-methylphenyl)-5-(trifluoromethyl)pyridin-2-yl]sulfamoyl}pyridin-2-yl)-3-methylpiperidine-3-carboxylic Acid]
–	–	137%	4980 nM	Cc1ccc(F)cc1-c1nc(NS(=O)(=O)c2cccc(N3CCC34CNC4)n2)ccc1Cl [Example 310, N-(5-chloro-6-(5-fluoro-2-methylphenyl)pyridin-2-yl)-6-(1,6-diazaspiro[3.3]heptan-1-yl)pyridine-2-sulfonamide]
–	–	140%	3690 nM	Cc1ccccc1-c1nc(NS(=O)(=O)c2cccc(N[C@H]3C[C@H](C(=O)O)C3)n2)ccc1C(F)(F)F [Example 355, (1r,3r)-3-((6-(N-(6-(o-tolyl)-5-(trifluoromethyl)pyridin-2-yl)sulfamoyl)pyridin-2-yl)amino)cyclobutanecarboxylic Acid]
1770 nM	–	–	–	Cc1ccccc1-c1nc(NS(=O)(=O)c2cccc(N3CCC[C@@](C)(C(=O)O)C3)n2)ccc1C(F)(F)F [Example 415, (3R)-3-methyl-1-(6-{[6-(2-methylphenyl)-5-(trifluoromethyl)pyridin-2-yl]sulfamoyl}pyridin-2-yl)piperidine-3-carboxylic Acid]
1050 nM	–	–	–	CCc1ccccc1-c1nc(NS(=O)(=O)c2cccc(N3CCC[C@@](C)(C(=O)O)C3)n2)ccc1C(F)(F)F [Example 394, (R)-1-(6-(N-(6-(2-ethylphenyl)-5-(trifluoromethyl)pyridin-2-yl)sulfamoyl)pyridin-2-yl)-3-methylpiperidine-3-carboxylic Acid]
–	–	118%	2800 nM	Cc1ccccc1-c1nc(NS(=O)(=O)c2cccc(N3CCNC[C@@H]3C(=O)O)n2)ccc1C(F)(F)F [Example 353, (2R)-1-(6-{[6-(2-methylphenyl)-5-(trifluoromethyl)pyridin-2-yl]sulfamoyl}pyridin-2-yl)piperazine-2-carboxylic Acid]
501 nM	–	–	–	CC(C)c1ccccc1-c1nc(NS(=O)(=O)c2cccc(N3CCC[C@@](C)(C(=O)O)C3)n2)ccc1C(F)(F)F [Example 384, (R)-1-(6-(N-(6-(2-isopropylphenyl)-5-(trifluoromethyl)pyridin-2-yl)sulfamoyl)pyridin-2-yl)-3-methylpiperidine-3-carboxylic Acid]

Structure (SMILES)	EC50 [1]	Emax (surface expression Amax)	Emax [2]	EC50 [2]
CC(C)COc1ccccc1-c1nc(NS(=O)(=O)c2cccc(N3CCCC(C)(C(=O)O)C3)n2)ccc1Cl (stereo not shown) [Example 400, 1-(6-(N-(5-chloro-6-(2-isobutoxyphenyl)pyridin-2-yl)sulfamoyl)pyridin-2-yl)-3-methylpiperidine-3-carboxylic Acid]	1100 nM	672%	–	–

— patent publication US11066369B2, “N-(pyridin-2-yl)pyridine-sulfonamide derivatives and their use in the treatment of disease” (Novartis AG, priority 2016, dated 2021)
